Experimental data: publication PMC4082485, “The Rodin-Ohno hypothesis that two enzyme superfamilies descended from one ancestral gene: an unlikely scenario for the origins of translation that will not be dismissed” (Biology Direct, 2014)

Experiments:
[1] = target: T1, HisRS 46-residue peptide (46-mer, Class II ATP binding site) (Escherichia coli, UniProt P60906); assay: fluorescence titration of ATP with peptide (Mildvan assay); conditions: pH 4.5; range printed jointly for the TrpRS and HisRS 46-mers, not assigned to either
T1 construct: gene hisS

[2] = target: T2, TrpRS 46-residue peptide (46-mer, Class I ATP binding site) (Geobacillus stearothermophilus, UniProt P00953); assay: as above
T2 construct: gene trpS

[3] = target: T3, HisRS Urzyme (HisRS 2) (Escherichia coli, UniProt P60906); assay: Michaelis-Menten steady-state kinetics of amino acid activation; format: biochemical; conditions: ATP co-substrate; only kcat/KM free energies plotted
T3 construct: gene hisS; HisRS invariant core (Motifs 1 and 2, 122-residue base fragment); MBP fusion, TEV cleavage
T3 sequence (P60906 25-146): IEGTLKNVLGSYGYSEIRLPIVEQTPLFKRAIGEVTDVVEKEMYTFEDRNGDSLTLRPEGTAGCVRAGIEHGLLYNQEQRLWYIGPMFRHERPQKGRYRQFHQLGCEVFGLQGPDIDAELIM

T1 sequence (P60906 101-146): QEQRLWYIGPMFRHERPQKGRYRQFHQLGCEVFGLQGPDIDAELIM
T2 sequence (P00953 1-46 limits assumed): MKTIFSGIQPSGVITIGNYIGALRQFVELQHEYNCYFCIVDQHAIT

Row | Kd [1] [µM] | Kd [2] [µM] | Compound | Michaelis-Menten steady-state kinetics of amino acid activation [3]
1 | 10 to 65 | 10 to 65 | Nc1ncnc2c1ncn2[C@@H]1O[C@H](COP(=O)(O)OP(=O)(O)OP(=O)(O)O)[C@@H](O)[C@H]1O [ATP] | –
2 | – | – | N[C@@H](Cc1cnc[nH]1)C(=O)O [histidine] | they both preferentially activate amino acids similar to the original substrate (i.e., Leu and His)
